Article PMC6688997 (Nature Communications, 2019)

Legend:
Assay in all cases: Kinase assay, 1 mM ATP
Format in all cases: biochemical
AMPKα1/β1/γ1 = AMPKα1/β1/γ1 (Homo sapiens, UniProt Q13131)
Method: (§1) An off-chip mobility shift assay was performed by Carna Biosciences, Inc. (Kobe, Japan), according to their product instructions. […] The IC50 values were estimated according to the four-parameter logistic model.

ARG = ARG (Homo sapiens, UniProt P42684)
Method: as §1

AurB = AurB (Homo sapiens, UniProt Q96GD4)
Method: as §1

BLK = BLK (Homo sapiens, UniProt P51451)
Method: as §1

BMX = target: T1, BMX (Homo sapiens, UniProt P51813)
T1 construct: purchased Carna Biosciences
Method: as §1

BRK = target: T2, BRK (Homo sapiens, UniProt Q13882)
T2 construct: purchased Carna Biosciences
Method: as §1

CDK4/CycD3 = CDK4/CycD3 (Homo sapiens, UniProt P11802)
Method: as §1

DYRK1B = DYRK1B (Homo sapiens, UniProt Q9Y463)
Method: as §1

EGFR = EGFR (Homo sapiens, UniProt P00533)
Method: as §1

EGFR(T790M/L858R) = target: T3, EGFR(T790M/L858R) (Homo sapiens, UniProt P00533, L858R/T790M)
T3 construct: purchased Carna Biosciences
Method: as §1

EGFR(d746-750/T790M) = target: T4, EGFR(d746-750/T790M) (Homo sapiens, UniProt P00533, DEL746-750/T790M)
T4 construct: purchased Carna Biosciences
Method: as §1

EPHA1 = EPHA1 (Homo sapiens, UniProt P21709)
Chain of EPHA1 (P21709 26-976): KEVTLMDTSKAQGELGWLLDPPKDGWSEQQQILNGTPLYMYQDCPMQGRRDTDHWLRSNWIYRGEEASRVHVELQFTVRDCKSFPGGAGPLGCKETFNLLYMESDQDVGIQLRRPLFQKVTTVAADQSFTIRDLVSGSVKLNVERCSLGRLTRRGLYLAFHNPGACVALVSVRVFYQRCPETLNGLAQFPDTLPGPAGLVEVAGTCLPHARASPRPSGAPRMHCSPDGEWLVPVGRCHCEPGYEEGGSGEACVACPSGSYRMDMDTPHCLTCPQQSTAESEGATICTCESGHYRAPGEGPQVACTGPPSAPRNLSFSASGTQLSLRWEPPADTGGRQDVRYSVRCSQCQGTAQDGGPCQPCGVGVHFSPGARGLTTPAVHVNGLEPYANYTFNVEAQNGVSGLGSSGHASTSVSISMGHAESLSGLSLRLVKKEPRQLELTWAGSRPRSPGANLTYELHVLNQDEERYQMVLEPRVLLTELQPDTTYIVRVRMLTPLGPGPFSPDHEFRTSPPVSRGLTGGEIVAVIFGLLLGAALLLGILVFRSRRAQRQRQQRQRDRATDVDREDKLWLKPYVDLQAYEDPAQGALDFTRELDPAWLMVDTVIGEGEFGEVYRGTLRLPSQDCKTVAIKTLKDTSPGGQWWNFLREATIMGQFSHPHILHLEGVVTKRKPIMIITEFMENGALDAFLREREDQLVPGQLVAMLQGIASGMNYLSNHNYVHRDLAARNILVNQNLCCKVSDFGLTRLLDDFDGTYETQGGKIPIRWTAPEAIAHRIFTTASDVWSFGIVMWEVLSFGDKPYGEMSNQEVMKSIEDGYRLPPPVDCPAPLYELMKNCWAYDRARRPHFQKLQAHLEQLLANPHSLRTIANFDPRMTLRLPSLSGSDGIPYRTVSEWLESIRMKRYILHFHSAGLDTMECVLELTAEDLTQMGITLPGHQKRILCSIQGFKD
Method: as §1

EPHA5 = EPHA5 (Homo sapiens, UniProt P54756)
Chain of EPHA5 (P54756 25-1037): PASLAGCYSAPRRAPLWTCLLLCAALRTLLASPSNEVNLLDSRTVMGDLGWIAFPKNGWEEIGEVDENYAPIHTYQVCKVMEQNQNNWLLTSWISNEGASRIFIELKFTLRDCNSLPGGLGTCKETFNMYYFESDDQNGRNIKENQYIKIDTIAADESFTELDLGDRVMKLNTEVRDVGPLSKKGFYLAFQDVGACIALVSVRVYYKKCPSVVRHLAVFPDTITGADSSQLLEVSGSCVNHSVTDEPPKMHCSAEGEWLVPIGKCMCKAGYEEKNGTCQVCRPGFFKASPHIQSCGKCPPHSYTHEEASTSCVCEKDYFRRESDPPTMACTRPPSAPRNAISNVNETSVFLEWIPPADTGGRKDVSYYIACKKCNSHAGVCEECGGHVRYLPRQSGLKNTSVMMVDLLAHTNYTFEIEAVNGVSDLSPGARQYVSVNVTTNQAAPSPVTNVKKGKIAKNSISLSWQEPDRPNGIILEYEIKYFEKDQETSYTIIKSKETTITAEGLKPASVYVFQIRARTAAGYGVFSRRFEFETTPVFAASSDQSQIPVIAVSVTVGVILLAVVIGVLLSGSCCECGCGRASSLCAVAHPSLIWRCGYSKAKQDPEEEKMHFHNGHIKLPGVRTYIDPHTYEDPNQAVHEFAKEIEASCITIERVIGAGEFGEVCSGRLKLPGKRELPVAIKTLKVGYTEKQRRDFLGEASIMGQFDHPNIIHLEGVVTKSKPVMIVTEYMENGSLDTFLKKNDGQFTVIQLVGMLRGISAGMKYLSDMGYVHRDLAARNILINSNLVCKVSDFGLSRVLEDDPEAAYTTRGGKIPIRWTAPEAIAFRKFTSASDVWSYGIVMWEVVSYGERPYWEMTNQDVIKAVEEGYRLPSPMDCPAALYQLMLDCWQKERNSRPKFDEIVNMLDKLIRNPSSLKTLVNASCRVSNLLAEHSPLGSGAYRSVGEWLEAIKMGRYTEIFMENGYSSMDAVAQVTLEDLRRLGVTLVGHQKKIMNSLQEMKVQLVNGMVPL
Method: as §1

EPHA6 = EPHA6 (Homo sapiens, UniProt Q9UF33)
Method: as §1

EPHB4 = EPHB4 (Homo sapiens, UniProt P54760)
Method: as §1

FER = target: T5, FER (Homo sapiens, UniProt P16591)
T5 construct: purchased Carna Biosciences
Method: as §1

FES = FES (Homo sapiens, UniProt P07332)
Method: as §1

FGFR1 = target: T6, FGFR1 (Homo sapiens, UniProt P11362)
T6 construct: purchased Carna Biosciences
Method: as §1

FGFR2 = FGFR2 (Homo sapiens, UniProt P21802)
Chain of FGFR2 (P21802 22-821): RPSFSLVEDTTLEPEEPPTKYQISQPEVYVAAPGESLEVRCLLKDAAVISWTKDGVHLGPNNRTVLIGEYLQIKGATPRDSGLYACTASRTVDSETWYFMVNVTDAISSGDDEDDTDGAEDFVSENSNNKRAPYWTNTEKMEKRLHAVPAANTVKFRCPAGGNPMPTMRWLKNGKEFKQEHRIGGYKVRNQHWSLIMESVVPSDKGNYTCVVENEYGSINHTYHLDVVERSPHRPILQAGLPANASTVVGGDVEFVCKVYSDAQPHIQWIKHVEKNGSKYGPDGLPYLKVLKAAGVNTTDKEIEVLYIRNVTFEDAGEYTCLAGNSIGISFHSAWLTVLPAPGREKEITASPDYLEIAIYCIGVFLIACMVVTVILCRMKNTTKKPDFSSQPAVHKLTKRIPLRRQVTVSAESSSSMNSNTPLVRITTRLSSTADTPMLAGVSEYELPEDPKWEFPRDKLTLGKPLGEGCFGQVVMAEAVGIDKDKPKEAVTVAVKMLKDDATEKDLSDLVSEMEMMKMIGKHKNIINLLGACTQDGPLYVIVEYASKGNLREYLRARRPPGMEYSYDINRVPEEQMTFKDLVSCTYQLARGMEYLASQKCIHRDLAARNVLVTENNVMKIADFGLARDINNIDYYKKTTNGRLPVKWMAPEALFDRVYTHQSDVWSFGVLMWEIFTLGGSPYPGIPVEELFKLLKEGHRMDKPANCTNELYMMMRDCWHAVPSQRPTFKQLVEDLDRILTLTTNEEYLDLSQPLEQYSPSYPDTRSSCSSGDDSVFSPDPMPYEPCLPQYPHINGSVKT
Method: as §1

FGFR4 = FGFR4 (Homo sapiens, UniProt P22455)
Method: as §1

FLT3 = target: T7, FLT3 (Homo sapiens, UniProt P36888)
T7 construct: purchased Carna Biosciences
Method: as §1

FRK = target: T8, FRK (Homo sapiens, UniProt P42685)
T8 construct: purchased Carna Biosciences
Method: as §1

GSK3α = GSK3α (Homo sapiens, UniProt P49840)
Method: as §1

GSK3β = GSK3β (Homo sapiens, UniProt P49841)
Method: as §1

HCK = HCK (Homo sapiens, UniProt P08631)
Method: as §1

HIPK4 = HIPK4 (Homo sapiens, UniProt Q8NE63)
Chain of HIPK4 (Q8NE63 whole entry): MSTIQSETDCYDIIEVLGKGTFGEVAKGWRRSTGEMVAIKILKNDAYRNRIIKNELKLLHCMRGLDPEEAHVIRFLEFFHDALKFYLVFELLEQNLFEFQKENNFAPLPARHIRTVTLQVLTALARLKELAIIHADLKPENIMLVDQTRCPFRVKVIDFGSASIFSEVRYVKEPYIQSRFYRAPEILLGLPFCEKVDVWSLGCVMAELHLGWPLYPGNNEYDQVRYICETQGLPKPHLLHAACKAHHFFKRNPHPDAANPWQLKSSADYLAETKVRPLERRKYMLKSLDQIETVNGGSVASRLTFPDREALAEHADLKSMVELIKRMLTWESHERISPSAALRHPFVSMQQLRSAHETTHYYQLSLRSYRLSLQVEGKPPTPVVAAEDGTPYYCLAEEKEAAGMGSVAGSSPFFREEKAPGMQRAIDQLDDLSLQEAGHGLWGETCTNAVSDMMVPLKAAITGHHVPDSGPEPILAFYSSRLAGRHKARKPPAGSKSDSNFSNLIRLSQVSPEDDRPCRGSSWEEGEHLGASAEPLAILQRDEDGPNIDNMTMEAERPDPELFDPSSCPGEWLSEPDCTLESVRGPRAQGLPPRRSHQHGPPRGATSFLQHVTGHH
Method: as §1

IRAK4 = IRAK4 (Homo sapiens, UniProt Q9NWZ3)
Method: as §1

IRR = target: T9, IRR (Homo sapiens, UniProt P14616)
T9 construct: purchased Carna Biosciences
Method: as §1

ITK = target: T10, ITK (Homo sapiens, UniProt Q08881)
T10 construct: purchased Carna Biosciences
Method: as §1

JNK2 = JNK2 (Homo sapiens, UniProt P45984)
Method: as §1

LYNb = target: T11, LYNb (Homo sapiens, UniProt P07948)
T11 construct: purchased Carna Biosciences
Method: as §1

MET = target: T12, MET (Homo sapiens, UniProt P08581)
T12 construct: purchased Carna Biosciences
Method: as §1

NEK6 = target: T13, NEK6 (Homo sapiens, UniProt Q9HC98)
T13 construct: purchased Carna Biosciences
Method: as §1

NEK7 = NEK7 (Homo sapiens, UniProt Q8TDX7)
Chain of NEK7 (Q8TDX7 whole entry): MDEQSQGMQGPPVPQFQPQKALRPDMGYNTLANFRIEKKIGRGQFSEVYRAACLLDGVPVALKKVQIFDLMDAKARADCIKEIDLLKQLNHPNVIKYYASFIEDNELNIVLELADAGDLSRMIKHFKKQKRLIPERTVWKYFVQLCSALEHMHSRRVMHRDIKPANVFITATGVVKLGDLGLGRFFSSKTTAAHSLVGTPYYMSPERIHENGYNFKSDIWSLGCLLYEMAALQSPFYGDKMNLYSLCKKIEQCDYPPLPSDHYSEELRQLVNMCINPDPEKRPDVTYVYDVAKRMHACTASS
Method: as §1

PDGFRα = target: T14, PDGFRα (Homo sapiens, UniProt P16234)
T14 construct: purchased Carna Biosciences
Method: as §1

PIM2 = PIM2 (Homo sapiens, UniProt Q9P1W9)
Method: as §1

PKACα = PKACα (Homo sapiens, UniProt P17612)
Method: as §1

PKCα = PKCα (Homo sapiens, UniProt P17252)
Method: as §1

QIK = QIK (Homo sapiens, UniProt Q9H0K1)
Method: as §1

SIK = target: T15, SIK (Homo sapiens, UniProt P57059)
T15 construct: purchased Carna Biosciences
Method: as §1

SRC = SRC (Homo sapiens, UniProt P12931)
Method: as §1

SRM = target: T16, SRM (Homo sapiens, UniProt Q9H3Y6)
T16 construct: purchased Carna Biosciences
Method: as §1

Chain of AMPKα1/β1/γ1 (Q13131 whole entry): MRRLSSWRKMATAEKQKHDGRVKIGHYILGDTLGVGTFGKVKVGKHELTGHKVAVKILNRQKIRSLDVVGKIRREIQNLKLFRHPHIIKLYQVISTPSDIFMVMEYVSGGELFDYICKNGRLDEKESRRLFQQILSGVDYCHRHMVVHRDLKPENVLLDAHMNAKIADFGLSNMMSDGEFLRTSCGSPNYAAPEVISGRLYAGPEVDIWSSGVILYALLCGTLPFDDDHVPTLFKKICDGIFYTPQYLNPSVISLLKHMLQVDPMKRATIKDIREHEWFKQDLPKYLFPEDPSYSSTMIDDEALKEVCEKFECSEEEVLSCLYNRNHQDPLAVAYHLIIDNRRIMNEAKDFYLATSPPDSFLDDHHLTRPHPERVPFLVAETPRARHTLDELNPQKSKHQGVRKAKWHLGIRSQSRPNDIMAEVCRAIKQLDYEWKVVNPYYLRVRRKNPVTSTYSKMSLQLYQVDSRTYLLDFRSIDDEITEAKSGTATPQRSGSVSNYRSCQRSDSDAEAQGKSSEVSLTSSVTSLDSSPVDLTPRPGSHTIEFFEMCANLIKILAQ
Chain of AMPKα1/β1/γ1 (Q9Y478 whole entry partner): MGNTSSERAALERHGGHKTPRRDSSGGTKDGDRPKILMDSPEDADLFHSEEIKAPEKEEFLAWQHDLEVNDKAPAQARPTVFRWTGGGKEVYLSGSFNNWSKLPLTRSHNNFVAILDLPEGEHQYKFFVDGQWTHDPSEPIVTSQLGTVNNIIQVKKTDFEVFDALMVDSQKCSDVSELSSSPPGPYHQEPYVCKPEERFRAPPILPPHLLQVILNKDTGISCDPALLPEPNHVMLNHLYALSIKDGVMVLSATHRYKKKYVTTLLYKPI
Chain of AMPKα1/β1/γ1 (P54619 whole entry partner): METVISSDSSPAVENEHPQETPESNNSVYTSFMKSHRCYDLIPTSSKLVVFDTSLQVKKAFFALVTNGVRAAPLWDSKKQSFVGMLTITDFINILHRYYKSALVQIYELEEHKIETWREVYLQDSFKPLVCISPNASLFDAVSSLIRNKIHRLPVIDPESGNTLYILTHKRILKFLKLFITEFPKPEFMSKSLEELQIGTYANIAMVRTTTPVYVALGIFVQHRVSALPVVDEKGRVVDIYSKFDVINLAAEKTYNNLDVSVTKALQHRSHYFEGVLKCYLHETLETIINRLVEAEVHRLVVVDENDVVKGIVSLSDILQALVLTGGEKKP

Q: C[C@@H](N)COc1ccc(-c2cnc3ccc(N[C@H](C)c4cccc(F)c4)nn23)cc1.O=C(O)CCCCC(=O)O [DS-6051b] was tested. Which inhibition at 0.2 µM (AMPKα1/β1/γ1) did it give?
A: Its inhibition at 0.2 µM is -3.6%.

Q: What about the inhibition at 0.2 µM (ARG) of the same compound?
A: The inhibition at 0.2 µM was -0.122%.

Q: And the inhibition at 0.2 µM (AurB)?
A: The inhibition at 0.2 µM was -12.2%.

Q: What about the inhibition at 0.2 µM (BLK) of the same compound?
A: Its inhibition at 0.2 µM is 0.178%.

Q: And the inhibition at 0.2 µM (BMX)?
A: Its inhibition at 0.2 µM is 10%.

Q: What about the inhibition at 0.2 µM (BRK) of the same compound?
A: The inhibition at 0.2 µM was 13.4%.

Q: What about the inhibition at 0.2 µM (CDK4/CycD3) of the same compound?
A: The inhibition at 0.2 µM was -0.7%.

Q: What about the inhibition at 0.2 µM (DYRK1B) of the same compound?
A: Its inhibition at 0.2 µM is -8.2%.

Q: And the inhibition at 0.2 µM (EGFR)?
A: Its inhibition at 0.2 µM is 3.7%.

Q: What about the inhibition at 0.2 µM (EGFR(T790M/L858R)) of the same compound?
A: Its inhibition at 0.2 µM is 4%.

Q: What about the inhibition at 0.2 µM (EGFR(d746-750/T790M)) of the same compound?
A: The inhibition at 0.2 µM was -0.9%.

Q: What about the inhibition at 0.2 µM (EPHA1) of the same compound?
A: The inhibition at 0.2 µM was 4.8%.

Q: What about the inhibition at 0.2 µM (EPHA5) of the same compound?
A: The inhibition at 0.2 µM was -9%.

Q: What about the inhibition at 0.2 µM (EPHA6) of the same compound?
A: The inhibition at 0.2 µM was -5.7%.

Q: What about the inhibition at 0.2 µM (EPHB4) of the same compound?
A: The inhibition at 0.2 µM was -6.2%.

Q: And the inhibition at 0.2 µM (FER)?
A: Its inhibition at 0.2 µM is 5.5%.

Q: And the inhibition at 0.2 µM (FES)?
A: The inhibition at 0.2 µM was 5.1%.

Q: And the inhibition at 0.2 µM (FGFR1)?
A: The inhibition at 0.2 µM was 3.4%.

Q: What about the inhibition at 0.2 µM (FGFR2) of the same compound?
A: The inhibition at 0.2 µM was 4.8%.

Q: What about the inhibition at 0.2 µM (FGFR4) of the same compound?
A: Its inhibition at 0.2 µM is 3.7%.

Q: What about the inhibition at 0.2 µM (FLT3) of the same compound?
A: Its inhibition at 0.2 µM is 18.8%.

Q: What about the inhibition at 0.2 µM (FRK) of the same compound?
A: Its inhibition at 0.2 µM is 8.1%.

Q: What about the inhibition at 0.2 µM (GSK3α) of the same compound?
A: Its inhibition at 0.2 µM is -3.4%.

Q: And the inhibition at 0.2 µM (GSK3β)?
A: The inhibition at 0.2 µM was -23.2%.

Q: And the inhibition at 0.2 µM (HCK)?
A: Its inhibition at 0.2 µM is -6%.

Q: And the inhibition at 0.2 µM (HIPK4)?
A: Its inhibition at 0.2 µM is -1.6%.

Q: What about the inhibition at 0.2 µM (IRAK4) of the same compound?
A: The inhibition at 0.2 µM was -0.4%.

Q: What about the inhibition at 0.2 µM (IRR) of the same compound?
A: The inhibition at 0.2 µM was 16.8%.

Q: What about the inhibition at 0.2 µM (ITK) of the same compound?
A: Its inhibition at 0.2 µM is -2.5%.

Q: What about the inhibition at 0.2 µM (JNK2) of the same compound?
A: Its inhibition at 0.2 µM is -5.1%.

Q: What about the inhibition at 0.2 µM (LYNb) of the same compound?
A: The inhibition at 0.2 µM was 4.8%.

Q: What about the inhibition at 0.2 µM (MET) of the same compound?
A: The inhibition at 0.2 µM was -6.2%.

Q: What about the inhibition at 0.2 µM (NEK6) of the same compound?
A: The inhibition at 0.2 µM was -0.6%.

Q: And the inhibition at 0.2 µM (NEK7)?
A: The inhibition at 0.2 µM was -2%.

Q: What about the inhibition at 0.2 µM (PDGFRα) of the same compound?
A: Its inhibition at 0.2 µM is 5.7%.

Q: And the inhibition at 0.2 µM (PIM2)?
A: Its inhibition at 0.2 µM is -14%.

Q: What about the inhibition at 0.2 µM (PKACα) of the same compound?
A: The inhibition at 0.2 µM was -7%.

Q: And the inhibition at 0.2 µM (PKCα)?
A: Its inhibition at 0.2 µM is 2%.

Q: And the inhibition at 0.2 µM (QIK)?
A: The inhibition at 0.2 µM was -3.9%.

Q: What about the inhibition at 0.2 µM (SIK) of the same compound?
A: Its inhibition at 0.2 µM is 8.9%.

Q: And the inhibition at 0.2 µM (SRC)?
A: The inhibition at 0.2 µM was 9%.

Q: What about the inhibition at 0.2 µM (SRM) of the same compound?
A: The inhibition at 0.2 µM was -3.1%.
